Reference: patent US5602153A, “Method of using 1-arylheteroarylalkyl substituted-1H-1,2,4-triazole compounds for treatment of a giaucoma disorder” (G.D. Searle & Co., priority 1993, dated 1997)
Read-outs that look alike come from different tables or passages of the source.

Assays:
[1] = target: smooth muscle angiotensin II receptor; experiment: Assay A: Angiotensin II Binding Activity (displacement of 125I-AII, rat uterine membrane preparation); details: rat uterine membranes, 25 °C, 60 min; read-out: IC50 (50% displacement of total specifically bound 125I-AII)
Protocol: Assay A: Anaiotensin II Binding Activity
Compounds of the invention were tested for ability to bind to the smooth muscle angiotensin II receptor using a rat uterine membrane preparation. Angiotensin II (AII) was purchased from Peninsula Labs. ^125 I-angiotensin II (specific activity of 2200 Ci/mmol) was purchased from Du Pont-New England Nuclear. Other chemicals were obtained from Sigma Chemical Co. This assay was carried out according to the method of Douglas et al [Endocrinology, 106, 120-124 (1980)]. Rat uterine membranes were prepared from fresh tissue. All procedures were carried out at 4° C. Uteri were stripped of fat and homogenized in phosphate-buffered saline at pH 7.4 containing 5 mM EDTA. The homogenate was centrifuged at 1500×g for 20 min., and the supernatant was recentrifuged at 100,000×g for 60 min. The pellet was resuspended in buffer consisting of 2 mM EDTA and 50 mM Tris-HCl (pH 7.5) to a final protein concentration of 4 mg/ml. Assay tubes were charged with 0.25 ml of a solution containing 5 mM MgCl2, 2 mM EDTA, 0.5% bovine serum albumin, 50 mM Tris-HCl, pH 7.5 and ^125 I-AII (approximately 10^5 cpm) in the absence or in the presence of unlabelled ligand. The reaction was initiated by the addition of membrane protein and the mixture was incubated at 25° C. for 60 min. The incubation was terminated with ice-cold 50 mM Tris-HDl (pH 7.5) and the mixture was filtered to separate membrane-bound labelled peptide from the free ligand. The incubation tube and filter were washed with ice-cold buffer. Filters were assayed for radioactivity in a Micromedic gamma counter. Nonspecific binding was defined as binding in the presence of 10 μM of unlabelled AII. Specific binding was calculated as total binding minus nonspecific binding. The receptor binding affinity of an AII antagonist compound was indicated by the concentration (IC50) of the tested AII antagonist which gives 50% displacement of the total specifically bound ^125 I-AII from the high affinity AII receptor. Binding data were analyzed by a nonlinear least-squares curve fitting program.

rabbit aortic rings = target: T1, rabbit aortic rings (Oryctolagus cuniculus, UniProt P34976); experiment: Assay B: In Vitro Vascular Smooth Muscle-Response for AII (antagonist activity in rabbit aortic rings); format: cell-based, rabbit (male New Zealand white); details: antagonist 10^-5 M for 5 min, AII challenge
T1 construct: The thoracic aorta was removed, cleaned of adherent fat and connective tissue; from tissue; host or cells: thoracic aorta rings, endothelium removed, male New Zealand white rabbit
T1 sequence (P34976 1-359): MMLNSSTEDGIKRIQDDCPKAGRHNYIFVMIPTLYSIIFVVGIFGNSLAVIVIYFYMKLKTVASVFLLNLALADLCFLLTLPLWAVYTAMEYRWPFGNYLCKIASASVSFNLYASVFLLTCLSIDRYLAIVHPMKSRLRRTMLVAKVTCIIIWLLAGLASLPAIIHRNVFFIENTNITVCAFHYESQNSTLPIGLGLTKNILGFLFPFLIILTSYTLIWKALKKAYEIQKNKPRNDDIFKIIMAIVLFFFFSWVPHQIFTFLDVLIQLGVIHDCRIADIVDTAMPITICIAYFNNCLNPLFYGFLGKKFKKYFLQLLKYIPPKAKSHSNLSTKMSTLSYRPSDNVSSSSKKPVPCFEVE
Protocol: Assay B: In Vitro Vascular Smooth Muscle-Response for AII The compounds of the invention were tested for antagonist activity in rabbit aortic rings. Male New Zealand white rabbits (2-2.5 kg) were sacrificed using an overdose of pentobarbital and exsanguinated via the carotid arteries. The thoracic aorta was removed, cleaned of adherent fat and connective tissue and then cut into 3-mm ring segments. The endothelium was removed from the rings by gently sliding a rolled-up piece of filter paper into the vessel lumen. The rings were then mounted in a water-jacketed tissue bath, maintained at 37° C., between moveable and fixed ends of a stainless steel wire with the moveable end attached to an FT03 Grass transducer coupled to a Model 7D Grass Polygraph for recording isometric force responses. The bath was filled with 20 ml of oxygenated (95% oxygen/5% carbon dioxide) Krebs solution of the following composition (mM): 130 NaCl, 15 NaHCO3, 15 KCl, 1.2 NaH2 PO4, 1.2 MgSO4, 2.5 CaCl2, and 11.4 glucose. The preparations were equilibrated for one hour before approximately one gram of passive tension was placed on the rings. Angiotensin II concentration-response curves were then recorded (3×10^-10 to 1×10^-5 M). Each concentration of AII was allowed to elicit its maximal contraction, and then AII was washed out repeatedly for 30 minutes before rechallenging with a higher concentration of AII. Aorta rings were exposed to the test antagonist at 10^-5 M for 5 minutes before challenging with AII. Adjacent segments of the same aorta ring were used for all concentration-response curves in the presence or absence of the test antagonist. The effectiveness of the test compound was expressed in terms of pA2 values and were calculated according to H.O. Schild [Br. J. Pharmacol. Chemother., 2, 189-206 (1947)]. The pA2 value is the concentration of the antagonist which increases the EC50 value for AII by a factor of two. Each test antagonist was evaluated in aorta rings from two rabbits.

[2] = first of two rabbits, read-out: pA2 (first value) (converted)
[3] = second of two rabbits, read-out: pA2 (converted)

SMILES | IC50 [1] [nM] | Kb (rabbit aortic rings; [2]) [nM] | Kb (rabbit aortic rings; [3]) [nM]
CCCCc1nc(CCCC)n(Cc2ccc(-c3ccccc3C(=O)O)nc2)n1 [Example 2, 2-[5-[(3,5-dibutyl-1H-1,2,4-triazol-1-yl)methyl]-2-pyridinyl]benzoic acid] | 120 |  | 
CCCCc1nc(CCCC)n(Cc2ccc(-c3cnccc3-c3nnn[nH]3)cc2)n1 [Example 6, 5-[3-[4-[(3,5-dibutyl-1H-1,2,4-triazol-1-yl)methyl]phenyl]-4-pyridinyl]-1H-tetrazole] | 150 | 67.6 | 67.6
CCCCc1nc(CCCC)n(Cc2ccc(-c3ncccc3-c3nnn[nH]3)cc2)n1 [Example 7, 5-[2-[4-[(3,5-dibutyl-1H-1,2,4-triazol-1-yl)methyl]phenyl]-3-pyridinyl]-1H-tetrazole] | 98 | 229 | 91.2
CCCc1nc(CCC)n(Cc2ccc(-c3ccccc3-c3nnn[nH]3)nc2)n1 [Example 8, 5-[2-[5-[(3,5-dipropyl-1H-1,2,4triazol-1-yl)methyl]-2-pyridinyl]phenyl]-1H-tetrazole] | 72 | 34.7 | 25.7
CCCCc1nc(CCc2ccccc2)nn1Cc1ccc(-c2ccccc2-c2nnn[nH]2)nc1 [Example 15, 5-[2-[5-[[3-(2-phenylethyl)-5-butyl-1H-1,2,4-triazol-1-yl)methyl]-2-pyridinyl]phenyl]-1H-tetrazole] | 2.6 |  | 
CCCCc1nc(CCc2ccccc2)n(Cc2ccc(-c3ccccc3-c3nnn[nH]3)nc2)n1 [Example 16, 5-[2-[5-[[3-butyl-5-(2-phenylethyl)-1H-1,2,4-triazol-1-yl)methyl]-2-pyridinyl]phenyl]-1H-tetrazole] | 72 |  | 
CCCCc1nc(-c2ccccc2)n(Cc2ccc(-c3ccccc3-c3nnn[nH]3)nc2)n1 [Example 22, 5-[2-[5-[(3-butyl-5-phenyl-1H-1,2,4-triazol-1-yl)methyl]-2-pyridinyl]phenyl]-1H-tetrazole] | 220 |  | 
CCCCc1nc(-c2ccccc2C)nn1Cc1ccc(-c2ccccc2-c2nnn[nH]2)nc1 [Example 23, 5-[2-[5-[[3-(2-methylphenyl)-5-butyl-1H-1,2,4-triazol-1-yl)methyl]-2-pyridinyl]phenyl]-1H-tetrazole] | 18 |  | 
CCCCc1nc(-c2ccccc2C)n(Cc2ccc(-c3ccccc3-c3nnn[nH]3)nc2)n1 [Example 24, 5-[2-[5-[[3-butyl-5-(2-methylphenyl)-1H-1,2,4-triazol-1-yl)methyl]-2-pyridinyl]phenyl]-1H-tetrazole] | 530 |  | 603
CCCCc1nc(-c2ccccc2OC)nn1Cc1ccc(-c2ccccc2-c2nnn[nH]2)nc1 [Example 27, 5-[2-[5-[[3-(2-methoxyphenyl)-5-butyl-1H-1,2,4-triazol-1-yl)methyl]-2-pyridinyl]phenyl]-1H-tetrazole] | 110 |  | 
CCCCc1nc(-c2ccccc2OC)n(Cc2ccc(-c3ccccc3-c3nnn[nH]3)nc2)n1 [Example 28, 5-[2-[5-[[3-butyl-5-(2-methoxyphenyl)-1H-1,2,4-triazol-1-yl)methyl]-2-pyridinyl]phenyl]-1H-tetrazole] | 290 |  | 

Second part, the compound after the results:

IC50 [1] [nM] | Kb (rabbit aortic rings; [2]) [nM] | Kb (rabbit aortic rings; [3]) [nM] | SMILES
110 | 77.6 | 251 | CCCCc1nc(CCCC)n(Cc2ccc(-c3cccnc3-c3nnn[nH]3)cc2)n1 [Example 4, 5-[3-[4-[(3,5-dibutyl-1H-1,2,4-triazol-1-yl)methyl]phenyl]-2-pyridinyl]-1H-tetrazole]
250 |  |  | CCCCc1nc(CCCC)n(Cc2ccc(-c3ccncc3-c3nnn[nH]3)cc2)n1 [Example 5, 5-[4-[4-[(3,5-dibutyl-1H-1,2,4-triazol-1-yl)methyl]phenyl]-3-pyridinyl]-1H-tetrazole]
25 |  |  | CCCCc1nc(CC(CC)CC)nn1Cc1ccc(-c2ccccc2-c2nnn[nH]2)nc1 [Example 13, 5-[2-[5-[[3-(2-ethylbutyl)-5-butyl-1H-1,2,4-triazol-1-yl)methyl]-2-pyridinyl]phenyl]-1H-tetrazole]
13 |  |  | CCCCc1nc(CC(CC)CC)n(Cc2ccc(-c3ccccc3-c3nnn[nH]3)nc2)n1 [Example 14, 5-[2-[5-[[3-butyl-5-(2-ethylbutyl)-1H-1,2,4-triazol-1-yl)methyl]-2-pyridinyl]phenyl]-1H-tetrazole]
160 | 234 | 209 | CCCCc1nc(C(=O)NC)nn1Cc1ccc(-c2ccccc2-c2nnn[nH]2)nc1 [Example 19, 5-[2-[5-[[3-(N-methylamido)-5-butyl-1H-1,2,4-triazol-1-yl)methyl]-2-pyridinyl]phenyl]-1H-tetrazole]
350 | 145 | 145 | CCCCc1nc(C(=O)NC)n(Cc2ccc(-c3ccccc3-c3nnn[nH]3)nc2)n1 [Example 20, 5-[2-[5-[[3-butyl-5-(N-methylamido)-1H-1,2,4-triazol-1-yl)methyl]-2-pyridinyl]phenyl]-1H-tetrazole]
54 |  |  | CCCCc1nc(-c2ccccc2)nn1Cc1ccc(-c2ccccc2-c2nnn[nH]2)nc1 [Example 21, 5-[2-[5-[(3-phenyl-5-butyl-1H-1,2,4-triazol-1-yl)methyl]-2-pyridinyl]phenyl]-1H-tetrazole]
57 |  |  | CCCCc1nc(-c2ccccc2C(C)C)nn1Cc1ccc(-c2ccccc2-c2nnn[nH]2)nc1 [Example 25, 5-[2-[5-[[3-(2-isopropylphenyl)-5-butyl-1H-1,2,4-triazol-1-yl)methyl]-2-pyridinyl]phenyl]-1H-tetrazole]
11 |  |  | CCCCc1nc(-c2ccccc2C(C)C)n(Cc2ccc(-c3ccccc3-c3nnn[nH]3)nc2)n1 [Example 26, 5-[2-[5-[[3-butyl-5-(2-isopropylphenyl)-1H-1,2,4-triazol-1-yl)methyl]-2-pyridinyl]phenyl]-1H-tetrazole]
9.7 |  |  | CCCCc1nc(-c2c(F)cccc2F)nn1Cc1ccc(-c2ccccc2-c2nnn[nH]2)nc1 [Example 31, 5-[2-[5-[[3-(2,6-difluorophenyl)-5-butyl-1H-1,2,4-triazol-1-yl)methyl]-2-pyridinyl]phenyl]-1H-tetrazole]
21 |  |  | CCCCc1nc(-c2c(F)cccc2F)n(Cc2ccc(-c3ccccc3-c3nnn[nH]3)nc2)n1 [Example 32, 5-[2-[5-[[3-butyl-5-(2,6-difluorophenyl)-1H-1,2,4-triazol-1-yl)methyl]-2-pyridinyl]phenyl]-1H-tetrazole]
